The test system of one assay is AMY. On the set-up: method as in PMID 15692146. Particulars: cited from earlier work.
Assay [1] addresses T1, glycosylated CTR ECD[N130D] (Homo sapiens, UniProt P30988, N130D).
T1 sequence (P30988 38-141 N130D): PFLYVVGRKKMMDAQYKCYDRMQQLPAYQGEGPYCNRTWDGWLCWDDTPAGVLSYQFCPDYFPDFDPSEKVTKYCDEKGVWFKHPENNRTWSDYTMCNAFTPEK
The assay can be described thus: FP peptide binding assay, glycosylated CTR ECD[N130D] with or without PNGase F treatment. Particulars: heat‐inactivated PNGase F vs No PNGase F; Fig. 2A.
Procedure: (§1) pHLsec‐based vectors were used to obtain glycosylated CTR ECD from HEK293S GnTI^− cells as a secreted protein. Maltose‐binding protein (MBP) was fused to the CTR ECD to increase initial protein expression and purification.
(§2) MBP‐TEV cleavage site‐CTR ECD WT was expressed from HEK293S GnTI^− cells for 3 days after plasmid transfection with polyethyleneimine (PEI). All protein purification steps were performed at 4 °C, otherwise noted. The expressed protein was purified with immobilized Ni metal affinity chromatography (IMAC). The peak fractions were pooled and incubated with 1 : 5 ratio TEV protease (w/w, TEV protease: protein) for 6 h at 20 °C. The reaction mixture was spin‐concentrated (MWCO 10 kDa) and loaded to size‐exclusion chromatography (SEC). The fractions with expected CTR ECD WT molecular weight were collected, spin‐concentrated, and used for PNGase F reaction and following peptide binding assay. […]
(§3) The procedure of fluorescence polarization (FP) peptide binding assay was previously described [4]. FITC‐sCT(22–32), FITC‐AC413(6–25), and FITC‐AM(37–52)[S45W/Q50W] were used as fluorescence‐labeled peptide probes. […] A PolarStar Omega plate reader (BMG Labtech, Cary, NC, USA) or a SpectraiD5 (Molecular Devices, San Jose, CA, USA) was used to measure FP. Background‐subtracted fluorescence intensity was used to calculate anisotropy.

Assay [2] concerns glycosylated CTR ECD[N130D]. The assay is described as above. The following applies: PNGase F treatment vs No PNGase F treatment; Fig. 2A.
Procedure: as §1, §2, §3
In the next assay the test system is full‐length CTR. Particulars: cited from earlier work. An excerpt: The calcitonin receptor (CTR) is a class B GPCR for peptide hormone calcitonin that regulates calcium homeostasis. CTR has an ECD with four N‐glycosylation sites: N28, N73, N125, and N130. […] My colleagues and I reported that N‐glycosylation of CTR enhanced salmon calcitonin (sCT) affinity for CTR ECD by sevenfold and that the asp ...

A further assay concerns CTR ECD. Particulars: cited from earlier work. The text has this: The calcitonin receptor (CTR) is a class B GPCR for peptide hormone calcitonin that regulates calcium homeostasis. CTR has an ECD with four N‐glycosylation sites: N28, N73, N125, and N130. […] Unexpectedly, the crystal structures of Endo H‐treated/Asn‐linked GlcNAc‐containing CTR ECD were almost identical to the structure of glycan‐free CTR ECD with a subtle structural difference. Direct interaction between the Asn‐linked GlcNAc and peptide hormone sCT was not found in the crystal structures ruling out the hypothesis of direct interaction between them. We also examined whether CTR ECD residues near the Asn‐linked GlcNAc of N130 medi ...

For a further assay, the system named is CTR. On the set-up: method as in PMID 15692146. Particulars: cited from earlier work.
For assay [3], the target named is RAMP2 ECD:CTR ECD complex (Endo H‐treated CTR ECD WT) (Homo sapiens, UniProt O60895+P30988). In words: FP peptide binding assay, RAMP2 ECD 100 μM coincubation with Endo H-treated CTR ECD WT (AMY2 ECD). The following applies: Discussion summary of Fig. 4B. On the procedure: The expression and purification procedure of Endo H‐treated CTR ECD WT and N130D was previously reported. […] After TEV protease reaction, N‐glycans of the protein were trimmed with 1 : 10 ratio Endo H (w/w, Endo H : protein) overnight at 4 °C, while dialyzing to 25 mM MOPS (pH 6.5) and 150 mM NaCl. Next day, the pH was increased to pH 7.5 and the protein was purified with IMAC and following SEC. The final peak fractions were dialyzed to storage buffer and stored at −80 °C until use.
The expression and purification of glycan‐free RAMP2 ECD were previously reported except for using RAMP2.55‐140 instead of RAMP2.36‐140 [15]. Briefly, MBP‐Thrombin cleavage site‐hRAMP2.55‐140‐H6 was expressed in the E. coli strain Origami B DE3. The cells were lysed by sonication and spun down by centrifugation. The supernatant was purified with IMAC and following amylose affinity chromatography. Human α‐thrombin was used to cleave out MBP, and the reaction mixture was loaded to IMAC to remove untagged MBP and thrombin. The RAMP2 ECD was further purified with SEC, and the peak fractions were dialyzed to storage buffer and stored at −80 °C until use. RAMP2 ECD without an MBP‐tag was also purified as follows. hRAMP2.55‐140‐H6 was expressed in the E. coli strain Origami B DE3. The bacterial cells were lysed by sonication using Bioruptor® standard (Diagenode Inc., Denville, NJ, USA). […]

Where [4] appears, read: by the Asn‐linked GlcNAc of CTR N130.

Sequence of RAMP2 ECD:CTR ECD complex (Endo H‐treated CTR ECD WT) (P30988 38-141): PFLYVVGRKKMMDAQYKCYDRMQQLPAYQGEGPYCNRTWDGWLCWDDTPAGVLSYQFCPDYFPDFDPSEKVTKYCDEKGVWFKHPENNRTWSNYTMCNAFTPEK
Sequence of RAMP2 ECD:CTR ECD complex (Endo H‐treated CTR ECD WT) (O60895 55-140): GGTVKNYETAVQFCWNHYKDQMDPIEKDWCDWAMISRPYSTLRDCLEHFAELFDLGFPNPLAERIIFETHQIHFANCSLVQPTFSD

In the case of salmon calcitonin [sCT], in the assay with AMY, the agonist activity result is reported as “high affinity agonist”. For the same substance, the “effect of heat‐inactivated PNGase F on affinity” value in assay [1] is given as “did not change”. Further, in assay [2], the “fold decrease in affinity” value is on record as 1.7 fold. In addition, in the assay on full‐length CTR, the “affinity, effect of N‐glycosylation of CTR ECD N130” value is “enhanced”. Further, the “fold enhancement of affinity by N‐glycosylation” value in the assay on CTR ECD (N‐glycosylation of CTR) is reported as “sevenfold”. In the assay with CTR ECD (setting [4]), the “decrease of dissociation rate” value is on record as “twofold”, the fold affinity enhancement result is on record as “sixfold” and the “increase of association rate” value is “threefold”. Besides, the agonist activity result with CTR is “high affinity agonist”. Moreover, the “sCT affinity for AMY2 ECD, effect of the Asn‐linked GlcNAc of CTR N130” value in assay [3] is given as “increased”.
